According to paper PMC10870750 (ACS Polymers Au, 2023):
Positions of bridges follow the written chain, without caps; N, C: chain ends. Non-standard residues stand in square brackets, D forms with d. Residues, ends and D or L forms follow the SMILES beside them. S5 = C=CCCC[C@](C)(N)C(=O)O

Columns and labels:
Dynamic light scattering = format: physicochemical; conditions: 200 μM in 10 mM PBS; from lack of reliable DLS data and visibly clear solutions
[1] = tested on: human red blood cells (RBCs); conditions: 50 μM; ref our previous study; cited from earlier work

CC[C@H](C)[C@H](NC(=O)[C@H](C)NC(=O)[C@H](CCCCN)NC(=O)[C@H](CO)NC(=O)[C@H](CCC(=O)O)NC(=O)[C@@H]1CCCN1C(C)=O)C(=O)N[C@@H](CCCCN)C(=O)N[C@@]1(C)CCCC=CCCC[C@@](C)(C(=O)N[C@H](C(=O)N[C@@H](CO)C(=O)N[C@@H](CCCCN)C(=O)N[C@@H](CCC(=O)O)C(=O)N[C@@H](CCCNC(=N)N)C(=O)N[C@@H](CO)C(=O)N[C@@H](CCCCN)C(=O)N[C@@H](CCCNC(=N)N)C(=O)N[C@@H](CO)C(=O)N2CCC[C@H]2C(N)=O)C(C)C)NC(=O)[C@H](CCCCN)NC(=O)[C@H](CC(C)C)NC(=O)[C@H](CC(C)C)NC1=O [stapled Ac-P9] (Ac-PESKAIK[S5]LLK[S5]VSKERSKRSP-NH2; staple 8-12)
solubility / aggregation state in solution (Dynamic light scattering): soluble or exists in very small aggregates | hemolysis [1]: does not induce significant hemolysis
